This passage reports IC50 results from patent publication US11389438B2 (CHDI Foundation, Inc., priority 2019, dated 2022).

Structures can show the parent of a compound that is named as a salt.

For this assay, the target named is pre-formed polyQ46 or Exon1-polyQ46 aggregates (mHTT) (Homo sapiens, UniProt P42858, INS38QQQQQQQQQQQQQQQQQQQQQQQQQ). The assay is described as follows: Q46_RBA radioligand binding assay (displacement of [3H]-radioligand). The method, then:
Binding of W to mHTT. A radioligand binding assay was developed to screen for compounds which can efficiently displace a radioligand detailed elsewhere (see, e.g., U.S. Patent Publication No. from US 2017/0292150) pre-formed polyQ46 or Exon1-polyQ46 aggregates (Q46_RBA).
Aggregation of polyQ peptides is initiated by cleavage of the tag from a GST-polyQ46 or from a MBP-Exon1-polyQ46 fusion protein. The pre-formed aggregates are then incubated with compounds which compete with the [^3H]-radiolabelled ligand for binding to the aggregates. The readout is a scintillation based MicroBeta measurement of radioligand bound to aggregates. The activity was indicated as: +++, <100 nM; ++, 100-500 nM, +, >500 nM.
(In general: In a radioligand displacement assay an active substance lowers the binding of a labelled ligand.)
One may read the IC50 as the concentration that gives 50% inhibition. High values mean lower potency, low ones higher potency. `CC(C)C[C@H](NC(=O)[C@@H](O)[C@H](N)Cc1ccccc1)C(=O)NCCOCCOCCOc1ccc(C(=O)Nc2ccc3oc(-c4ccc(=O)n(C)n4)nc3c2)nc1` (stereo in doubt) [Compound 13] showed an IC50 of less than 100 nM.
In the case of `CNc1c(-c2cn3c(n2)sc2cc(OCCOCCOCCOCCOCC(=O)N[C@H](C(=O)N4C[C@H](O)C[C@H]4C(=O)NCc4ccc(-c5scnc5C)cc4)C(C)(C)C)ccc23)nc2cc(C#N)ccn12` [Compound 4, (2S,4R)-1-((S)-2-(tert-butyl)-17-((2-(7-cyano-3-(methylamino)-imidazo[1,2-a]pyridin-2-yl)benzo[d]imidazo[2,1-b]thiazol-7-yl)oxy)-4-oxo-6,9,12,15-tetraoxa-3-azaheptadecan-1-oyl)-4-hydroxy-N-(4-(4-methylthiazol-5-yl)benzyl)-pyrrolidine-2-carboxamide] it was 100 to 500 nM; in that of `CNc1c(-c2cn3c(n2)sc2cc(OCCOc4cc(-c5scnc5C)ccc4CNC(=O)[C@@H]4C[C@@H](O)CN4C(=O)[C@H](C(C)C)N4Cc5ccccc5C4=O)ccc23)nc2cc(C#N)ccn12` [Compound 5, (2S,4R)—N-(2-(2-((2-(7-cyano-3-(methylamino)imidazo[1,2-a]pyridin-2-yl)benzo[d]imidazo[2,1-b]thiazol-7-yl)oxy)ethoxy)-4-(4-methylthiazol-5-yl)benzyl)-4-hydroxy-1-((S)-3-methyl-2-(1-oxoisoindolin-2-yl)butanoyl)pyrrolidine-2-carboxamide], 100 to 500 nM; in that of `CNc1c(-c2cn3c(n2)sc2cc(OCCOCCOc4cc(-c5scnc5C)ccc4CNC(=O)[C@@H]4C[C@@H](O)CN4C(=O)[C@H](C(C)C)N4Cc5ccccc5C4=O)ccc23)nc2cc(C#N)ccn12` [Compound 6], 100 to 500 nM.
As for `CNc1c(-c2cn3c(n2)sc2cc(OCCOCCOCCOc4cc(-c5scnc5C)ccc4CNC(=O)[C@@H]4C[C@@H](O)CN4C(=O)[C@H](C(C)C)N4Cc5ccccc5C4=O)ccc23)nc2cc(C#N)ccn12` [Compound 7], the figure is 100 to 500 nM.
As for `CNc1c(-c2cn3c(n2)sc2cc(OCCOCCOCCOCCOc4cc(-c5scnc5C)ccc4CNC(=O)[C@@H]4C[C@@H](O)CN4C(=O)[C@H](C(C)C)N4Cc5ccccc5C4=O)ccc23)nc2cc(C#N)ccn12` [Compound 8], the figure is 100 to 500 nM.
Molecule `CNc1c(-c2cn3c(n2)sc2cc(OCCOCCNc4cccc5c4C(=O)N(C4CCC(=O)NC4=O)C5=O)ccc23)nc2cc(C#N)ccn12` (stereo not drawn) [Compound 9] came in with an IC50 of less than 100 nM.
As for `CC(C)C[C@H](NC(=O)[C@@H](O)[C@H](N)Cc1ccccc1)C(=O)NCCOCCOc1ccc(C(=O)Nc2ccc3oc(-c4ccc(=O)n(C)n4)nc3c2)nc1` [Compound 12], the figure is less than 100 nM; as for `CC(C)C[C@H](NC(=O)[C@@H](O)[C@H](N)Cc1ccccc1)C(=O)NCCOCCOCCOCCOc1ccc(C(=O)Nc2ccc3oc(-c4ccc(=O)n(C)n4)nc3c2)nc1` [Compound 14], less than 100 nM.
As for `CC(C)C[C@H](NC(=O)[C@@H](O)[C@H](N)Cc1ccccc1)C(=O)NCCOCCOCCOCCOCCOc1ccc(C(=O)Nc2ccc3oc(-c4ccc(=O)n(C)n4)nc3c2)nc1` [Compound 15], the figure is less than 100 nM; as for `CC(C)C[C@H](NC(=O)[C@@H](O)[C@H](N)Cc1ccccc1)C(=O)NCCOCCOCCOCCOCCOCCOc1ccc(C(=O)Nc2ccc3oc(-c4ccc(=O)n(C)n4)nc3c2)nc1` [Compound 16], less than 100 nM; as for `CC(C)C[C@H](NC(=O)[C@@H](O)[C@H](N)Cc1ccccc1)C(=O)NCCOCCOCCOCCOCCOCCOCCOCCOCCOc1ccc(C(=O)Nc2ccc3oc(-c4ccc(=O)n(C)n4)nc3c2)nc1` [Compound 17], less than 100 nM.
In the case of `Cc1ncsc1-c1ccc(CNC(=O)[C@H]2C[C@H](O)CN2C(=O)[C@H](NC(=O)CCOCCOCCOCCOCCOCCOCCOCCOCCOCCOCCOCCOCCOCCOCCOCCOCCOc2ccc(C(=O)Nc3ccc4oc(-c5ccc(=O)n(C)n5)nc4c3)nc2)C(C)(C)C)cc1` [Compound 27] it was 100 to 500 nM; in that of `Cc1ncsc1-c1ccc(CNC(=O)[C@@H]2C[C@@H](O)CN2C(=O)[C@@H](NC(=O)COCCOc2ccc(C(=O)Nc3ccc4oc(-c5ccc(=O)n(C)n5)nc4c3)nc2)C(C)(C)C)cc1` [Compound 29], less than 100 nM; in that of `Cn1nc(-c2nc3cc(NC(=O)c4ccc(OCCOCCNc5cccc6c5C(=O)N(C5CCC(=O)NC5=O)C6=O)cn4)ccc3o2)ccc1=O` (stereo not drawn) [Compound 35], less than 100 nM.
Turning to `Cc1ncsc1-c1ccc(CNC(=O)[C@H]2C[C@H](O)CN2C(=O)[C@H](NC(=O)CCOCCOCCOCCOCCOCCOc2ccc(C(=O)Nc3ccc4oc(-c5ccc(=O)n(C)n5)nc4c3)nc2)C(C)(C)C)cc1` [Compound 41], the IC50 was less than 100 nM.
In the case of `CC(C)C[C@H](NC(=O)[C@@H](O)[C@H](N)Cc1ccccc1)C(=O)NCCOCCOCCOc1ccc(COc2ccc3oc(-c4ccc(=O)n(C)n4)nc3c2)nc1` [Compound 49, (2S)-2-[(2S,3R)-3-Azaniumyl-2-hydroxy-4-phenylbutanamido]-4-methyl-N-{2-[2-(2-{[6-({[2-(1-methyl-6-oxo-1,6-dihydropyridazin-3-yl)-1,3-benzoxazol-5-yl]oxy}methyl)pyridin-3-yl]oxy}ethoxy)ethoxy]ethyl}pentanamide formate] it was less than 100 nM; in that of `COc1ccc(C(=O)Nc2ccc3oc(-c4ccc(=O)n(CCOCCOCCNC(=O)[C@H](CC(C)C)NC(=O)[C@@H](O)[C@H](N)Cc5ccccc5)n4)nc3c2)nc1` [Compound 50, N-(2-{1-[2-(2-{2-[(2S)-2-[(2S,3R)-3-Amino-2-hydroxy-4-phenylbutanamido]-4-methylpentanamido]ethoxy}ethoxy)ethyl]-6-oxo-1,6-dihydropyridazin-3-yl}-1,3-benzoxazol-5-yl)-5-methoxypyridine-2-carboxamide], less than 100 nM; in that of `Cc1ncsc1-c1ccc(CNC(=O)[C@H]2C[C@H](O)CN2C(=O)[C@H](NC(=O)COCCOc2ccc(C(=O)Nc3ccc4oc(-c5ccc(=O)n(C)n5)nc4c3)nc2)C(C)(C)C)cc1` [Compound 51, 5-[2-({[(2R)-1-[(2R,4S)-4-Hydroxy-2-({[4-(4-methyl-1,3-thiazol-5-yl)phenyl]methyl}carbamoyl)pyrrolidin-1-yl]-3,3-dimethyl-1-oxobutan-2-yl]carbamoyl}methoxy)ethoxy]-N-[2-(1-methyl-6-oxo-1,6-dihydropyridazin-3-yl)-1,3-benzoxazol-5-yl]pyridine-2-carboxamide], less than 100 nM.
As for `CC(C)C[C@H](NC(=O)CCCc1ccccc1)C(=O)NCCOCCOCCOc1ccc(COc2ccc3oc(-c4ccc(=O)n(C)n4)nc3c2)nc1` [Compound 52, (2S)-4-Methyl-N-{2-[2-(2-{[6-({[2-(1-methyl-6-oxo-1,6-dihydropyridazin-3-yl)-1,3-benzoxazol-5-yl]oxy}methyl)pyridin-3-yl]oxy}ethoxy)ethoxy]ethyl}-2-(4-phenylbutanamido)pentanamide], the figure is less than 100 nM; as for `CC(C)C[C@H](NC(=O)[C@@H](O)[C@H](N)Cc1ccccc1)C(=O)NCCOCCOCCOc1ccc(NC(=O)c2ccn3c(n2)nc2ccccc23)cn1` [Compound 59, N-{6-[2-(2-{2-[(2S)-2-[(2S,3R)-3-amino-2-hydroxy-4-phenylbutanamido]-4-methylpentanamido]ethoxy}ethoxy)ethoxy]pyridin-3-yl}-1,8,10-triazatricyclo[7.4.0.0^2,7]trideca-2,4,6,8,10,12-hexaene-11-carboxamide], less than 100 nM; as for `CC(C)C[C@H](NC(=O)[C@@H](O)[C@H](N)Cc1ccccc1)C(=O)NCCOCCOCCNc1ccc(NC(=O)c2ccn3c(n2)nc2ccccc23)cn1` [Compound 60, N-(6-{[2-(2-{2-[(2S)-2-[(2S,3R)-3-azaniumyl-2-hydroxy-4-phenylbutanamido]-4-methylpentanamido]ethoxy}ethoxy)ethyl]amino}pyridin-3-yl)-1,8,10-triazatricyclo[7.4.0.0^2,7]trideca-2,4,6,8,10,12-hexaene-11-carboxamide formate], less than 100 nM.
`CC(C)C[C@H](NC(=O)[C@@H](O)[C@H](N)Cc1ccccc1)C(=O)NCCOCCOCCOc1ccc(C(=O)Nc2ccc3oc(-c4cccnc4)nc3c2)nc1` [Compound 61]: the IC50 is less than 100 nM.
In the case of `CC(C)C[C@H](NC(=O)[C@@H](O)[C@H](N)Cc1ccccc1)C(=O)NCCOCCOCCOCCOc1ccc(C(=O)Nc2ccc3oc(-c4cccnc4)nc3c2)nc1` [Compound 62, 5-{2-[2-(2-{2-[(2S)-2-[(2S,3R)-3-Azaniumyl-2-hydroxy-4-phenylbutanamido]-4-methylpentanamido]ethoxy}ethoxy)ethoxy]ethoxy}-N-[2-(pyridin-3-yl)-1,3-benzoxazol-5-yl]pyridine-2-carboxamide diformate] it was less than 100 nM; in that of `Cc1ccc2nc(-c3ccc(NCCOCCOCCOc4cccc5c4C(=O)N(C4CCC(=O)NC4=O)C5=O)cc3)sc2c1` (stereo not drawn) [Compound 63], less than 100 nM; in that of `Cc1ccc2nc(-c3ccc(NCCOCCOCC(=O)N[C@H](C(=O)N4C[C@H](O)C[C@H]4C(=O)NCc4ccc(-c5scnc5C)cc4)C(C)(C)C)cc3)sc2c1` [Compound 64], greater than 500 nM.
In the case of `Cc1ccc2nc(-c3ccc(NCCOCCOCCNc4cccc5c4C(=O)N(C4CCC(=O)NC4=O)C5=O)cc3)sc2c1` (stereo not drawn) [Compound 65] it was 100 to 500 nM.
In the case of `Cc1ccc2nc(-c3ccc(NC(=O)COCCOCCNC(=O)[C@H](CC(C)C)NC(=O)[C@@H](O)[C@H](N)Cc4ccccc4)cc3)sc2c1` [Compound 66] it was 100 to 500 nM.
`Cc1ccc2nc(-c3ccc(NCCOCCOCCOc4cc(-c5scnc5C)ccc4CNC(=O)C4C[C@@H](O)CN4C(=O)[C@H](C(C)C)N4Cc5ccccc5C4=O)cc3)sc2c1` (stereo partly drawn) [Compound 67] registered an IC50 of 100 to 500 nM.
In the case of `Cc1ccc2nc(-c3ccc(NCCOCCOCCOCCNc4cccc5c4C(=O)N(C4CCC(=O)NC4=O)C5=O)cc3)sc2c1` (stereo not drawn) [Compound 68] it was 100 to 500 nM.
